Reference: ChEMBL document CHEMBL3885881, “DrugMatrix”

Species: Rattus norvegicus
Test: DrugMatrix - Regimen: Daily Repeat
Format: toxicity, organism-based, Sprague-Dawley
Set-up: regimen Daily Repeat, gender Male, age 6-8 weeks
Details: in vivo, po, 34 mg/kg, route oral GAVAGE, dose level Low, vehicle .5 % CMC; for ABSOLUTE BASOPHIL / ABSOLUTE EOSINOPHIL / ABSOLUTE LYMPHOCYTE / ABSOLUTE MONOCYTE / ABSOLUTE SEGMENTED NEUTROPHIL / BASOPHIL / EOSINOPHIL / ERYTHROCYTE COUNT / HEMATOCRIT / HEMOGLOBIN / LEUKOCYTE COUNT / LYMPHOCYTE / MEAN CORPUSCULAR HEMOGLOBIN / MEAN CORPUSCULAR HEMOGLOBIN CONCENTRATION / MEAN CORPUSCULAR VOLUME / MONOCYTE / NEUTROPHIL / NUCLEATED RED BLOOD CELLS / PLATELET COUNT: tissue Blood; for ALANINE AMINOTRANSFERASE / ALBUMIN / ALKALINE PHOSPHATASE / ASPARTATE AMINOTRANSFERASE / BLOOD UREA NITROGEN / CARBON DIOXIDE / CHLORIDE / CHOLESTEROL / CREATINE PHOSPHOKINASE / CREATININE / GLUCOSE / LACTATE DEHYDROGENASE / LIPASE / PHOSPHORUS / POTASSIUM / SODIUM / TOTAL BILIRUBIN / TOTAL PROTEIN / URIC ACID: tissue Plasma

Question: What does the source list for NS(=O)(=O)c1cc(C(=O)O)c(NCc2ccco2)cc1Cl [FUROSEMIDE]?
Answer: ABSOLUTE BASOPHIL (72 h, time 3 day): 0 CELLS/uL; ABSOLUTE EOSINOPHIL (72 h, time 3 day): 0 CELLS/uL; ABSOLUTE LYMPHOCYTE (72 h, time 3 day): 13709 CELLS/uL; ABSOLUTE MONOCYTE (72 h, time 3 day): 86 CELLS/uL; ABSOLUTE SEGMENTED NEUTROPHIL (72 h, time 3 day): 1038.33 CELLS/uL; BASOPHIL (72 h, time 3 day): 0%; EOSINOPHIL (72 h, time 3 day): 0%; ERYTHROCYTE COUNT (72 h, time 3 day): 5.45 x10E6/uL; HEMATOCRIT (72 h, time 3 day): 33.7%; HEMOGLOBIN (72 h, time 3 day): 13.47 G/DL; LEUKOCYTE COUNT (72 h, time 3 day): 14.83 x10E3/uL; LYMPHOCYTE (72 h, time 3 day): 92.33%; MEAN CORPUSCULAR HEMOGLOBIN (72 h, time 3 day): 24.7 pg; MEAN CORPUSCULAR HEMOGLOBIN CONCENTRATION (72 h, time 3 day): 39.97 G/DL; MEAN CORPUSCULAR VOLUME (72 h, time 3 day): 61.87 fL; MONOCYTE (72 h, time 3 day): 0.67%; NEUTROPHIL (72 h, time 3 day): 7%; NUCLEATED RED BLOOD CELLS (72 h, time 3 day): 0 /100WBC; PLATELET COUNT (72 h, time 3 day): 1150 x10E3/uL; ALANINE AMINOTRANSFERASE (72 h, time 3 day): 50.33 u/L; ALBUMIN (72 h, time 3 day): 4.17 G/DL; ALKALINE PHOSPHATASE (72 h, time 3 day): 404.33 u/L; ASPARTATE AMINOTRANSFERASE (72 h, time 3 day): 82.67 u/L; BLOOD UREA NITROGEN (72 h, time 3 day): 16 mg/dL; CARBON DIOXIDE (72 h, time 3 day): 29.33 mmol/L; CHLORIDE (72 h, time 3 day): 99 MEQ/L; CHOLESTEROL (72 h, time 3 day): 46.33 mg/dL; CREATINE PHOSPHOKINASE (72 h, time 3 day): 391.33 u/L; CREATININE (72 h, time 3 day): 0.19 mg/dL; GLUCOSE (72 h, time 3 day): 138.67 mg/dL; LACTATE DEHYDROGENASE (72 h, time 3 day): 200.67 u/L; LIPASE (72 h, time 3 day): 9 u/L; PHOSPHORUS (72 h, time 3 day): 10.7 mg/dL; POTASSIUM (72 h, time 3 day): 6.62 MEQ/L; SODIUM (72 h, time 3 day): 143.97 MEQ/L; TOTAL BILIRUBIN (72 h, time 3 day): 0.33 mg/dL; TOTAL PROTEIN (72 h, time 3 day): 5.77 G/DL; URIC ACID (72 h, time 3 day): 1.33 mg/dL; ABSOLUTE BASOPHIL (120 h, time 5 day): 0 CELLS/uL; ABSOLUTE EOSINOPHIL (120 h, time 5 day): 0 CELLS/uL; ABSOLUTE LYMPHOCYTE (120 h, time 5 day): 14118 CELLS/uL; ABSOLUTE MONOCYTE (120 h, time 5 day): 111.33 CELLS/uL; ABSOLUTE SEGMENTED NEUTROPHIL (120 h, time 5 day): 770.67 CELLS/uL; BASOPHIL (120 h, time 5 day): 0%; EOSINOPHIL (120 h, time 5 day): 0%; ERYTHROCYTE COUNT (120 h, time 5 day): 5.69 x10E6/uL; HEMATOCRIT (120 h, time 5 day): 36.23%; HEMOGLOBIN (120 h, time 5 day): 14 G/DL; LEUKOCYTE COUNT (120 h, time 5 day): 15 x10E3/uL; LYMPHOCYTE (120 h, time 5 day): 94%; MEAN CORPUSCULAR HEMOGLOBIN (120 h, time 5 day): 24.6 pg; MEAN CORPUSCULAR HEMOGLOBIN CONCENTRATION (120 h, time 5 day): 38.73 G/DL; MEAN CORPUSCULAR VOLUME (120 h, time 5 day): 63.7 fL; MONOCYTE (120 h, time 5 day): 0.67%; NEUTROPHIL (120 h, time 5 day): 5.33%; NUCLEATED RED BLOOD CELLS (120 h, time 5 day): 0.33 /100WBC; PLATELET COUNT (120 h, time 5 day): 1289.67 x10E3/uL; ALANINE AMINOTRANSFERASE (120 h, time 5 day): 54.33 u/L; ALBUMIN (120 h, time 5 day): 4.37 G/DL; ALKALINE PHOSPHATASE (120 h, time 5 day): 439.33 u/L; ASPARTATE AMINOTRANSFERASE (120 h, time 5 day): 88 u/L; BLOOD UREA NITROGEN (120 h, time 5 day): 23 mg/dL; CARBON DIOXIDE (120 h, time 5 day): 27 mmol/L; CHLORIDE (120 h, time 5 day): 100.33 MEQ/L; CHOLESTEROL (120 h, time 5 day): 42.67 mg/dL; CREATINE PHOSPHOKINASE (120 h, time 5 day): 236.67 u/L; CREATININE (120 h, time 5 day): 0.22 mg/dL; GLUCOSE (120 h, time 5 day): 162.33 mg/dL; LACTATE DEHYDROGENASE (120 h, time 5 day): 196.67 u/L; LIPASE (120 h, time 5 day): 8.67 u/L; PHOSPHORUS (120 h, time 5 day): 11.1 mg/dL; POTASSIUM (120 h, time 5 day): 6.53 MEQ/L; SODIUM (120 h, time 5 day): 144.3 MEQ/L; TOTAL BILIRUBIN (120 h, time 5 day): 0.2 mg/dL; TOTAL PROTEIN (120 h, time 5 day): 6.13 G/DL; URIC ACID (120 h, time 5 day): 1.67 mg/dL
